Several values for one entry are separate records, joined by “and”; a condition that tells them apart may be missing. Identical values can stand only once.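 Grown in 96-well plates, cells were treated for 48 hours with each compound at five concentrations. Insufficient inhibition: endpoint recorded as highest concentration tested. Abbreviation: GI50, concentration required for 50% inhibition of growth. TGI marks complete inhibition of growth.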
How the values were obtained:
Test in all cases: NCI anticancer screen, dose series, 48 h
HCT-15 colon = system: HCT-15 colon
M14 melanoma = system: M14 melanoma
ACHN renal = system: ACHN renal
NCI-H522 lung = system: NCI-H522 lung
SNB-78 CNS = system: SNB-78 CNS
DLD-1 colon = system: DLD-1 colon
SK-MEL-28 melanoma = system: SK-MEL-28 melanoma
SF-268 CNS = system: SF-268 CNS
TK-10 renal = system: TK-10 renal
MOLT-4 leukemia = system: MOLT-4 leukemia
HL-60(TB) leukemia = system: HL-60(TB) leukemia
RPMI-8226 leukemia = system: RPMI-8226 leukemia
786-0 renal = system: 786-0 renal
HOP-92 NSCLC = system: HOP-92 NSCLC
OVCAR-4 ovarian = system: OVCAR-4 ovarian
MALME-3M melanoma = system: MALME-3M melanoma
RXF 393 renal = system: RXF 393 renal
UO-31 renal = system: UO-31 renal
HOP-62 NSCLC = system: HOP-62 NSCLC
KM12 colon = system: KM12 colon
NCI-H226 lung = system: NCI-H226 lung
SNB-75 CNS = system: SNB-75 CNS
CAKI-1 renal = system: CAKI-1 renal
HCC-2998 colon = system: HCC-2998 colon
HOP-18 NSCLC = system: HOP-18 NSCLC
KM20L2 colon = system: KM20L2 colon
SK-MEL-5 melanoma = system: SK-MEL-5 melanoma
K-562 leukemia = system: K-562 leukemia
SK-OV-3 ovarian = system: SK-OV-3 ovarian
M19-MEL melanoma = system: M19-MEL melanoma
SK-MEL-2 melanoma = system: SK-MEL-2 melanoma
OVCAR-5 ovarian = system: OVCAR-5 ovarian
IGROV1 ovarian = system: IGROV1 ovarian
UACC-257 melanoma = system: UACC-257 melanoma
SF-295 CNS = system: SF-295 CNS
EKVX NSCLC = system: EKVX NSCLC
U251 CNS = system: U251 CNS
UACC-62 melanoma = system: UACC-62 melanoma
SF-539 CNS = system: SF-539 CNS
COLO 205 colon = system: COLO 205 colon
CCRF-CEM leukemia = system: CCRF-CEM leukemia
SN12C renal = system: SN12C renal
A498 renal = system: A498 renal
A549 NSCLC = system: A549 NSCLC
RXF-631 renal = system: RXF-631 renal
LXFL 529 NSCLC = system: LXFL 529 NSCLC
NCI-H23 lung = system: NCI-H23 lung
LOX IMVI melanoma = system: LOX IMVI melanoma
XF 498 CNS = system: XF 498 CNS
SNB-19 CNS = system: SNB-19 CNS
HT29 colon = system: HT29 colon
NCI-H460 lung = system: NCI-H460 lung
OVCAR-3 ovarian = system: OVCAR-3 ovarian
OVCAR-8 ovarian = system: OVCAR-8 ovarian
DMS 114 small cell lung = system: DMS 114 small cell lung
DMS 273 small cell lung = system: DMS 273 small cell lung
SR leukemia = system: SR leukemia
SW-620 colon = system: SW-620 colon
HCT-116 colon = system: HCT-116 colon

SMILES: CC(/C=C/C(=O)c1sc(C(N)=S)nc1C)=C\c1ccccc1
- TGI (HCT-15 colon): > 100 µM
- TGI (M14 melanoma): > 100 µM
- TGI (ACHN renal): > 100 µM
- TGI (NCI-H522 lung): > 100 µM
- TGI (SNB-78 CNS): > 100 µM
- TGI (DLD-1 colon): 57.4 µM
- TGI (SK-MEL-28 melanoma): > 100 µM
- TGI (SF-268 CNS): > 100 µM
- TGI (TK-10 renal): > 100 µM
- TGI (MOLT-4 leukemia): > 100 µM
- TGI (HL-60(TB) leukemia): > 100 µM
- TGI (RPMI-8226 leukemia): 44.6 µM
- TGI (786-0 renal): > 100 µM
- TGI (HOP-92 NSCLC): > 100 µM
- TGI (OVCAR-4 ovarian): > 100 µM
- TGI (MALME-3M melanoma): > 100 µM
- TGI (RXF 393 renal): > 100 µM
- TGI (UO-31 renal): > 100 µM
- TGI (HOP-62 NSCLC): > 100 µM
- TGI (KM12 colon): > 100 µM
- TGI (NCI-H226 lung): > 100 µM
- TGI (SNB-75 CNS): > 100 µM
- TGI (CAKI-1 renal): 56.4 µM
- TGI (HCC-2998 colon): > 100 µM
- TGI (HOP-18 NSCLC): > 100 µM
- TGI (KM20L2 colon): > 100 µM
- TGI (SK-MEL-5 melanoma): > 100 µM
- TGI (K-562 leukemia): > 100 µM
- TGI (SK-OV-3 ovarian): > 100 µM
- TGI (M19-MEL melanoma): > 100 µM
- TGI (SK-MEL-2 melanoma): > 100 µM
- TGI (OVCAR-5 ovarian): > 100 µM
- TGI (IGROV1 ovarian): > 100 µM
- TGI (UACC-257 melanoma): > 100 µM
- TGI (SF-295 CNS): > 100 µM
- TGI (EKVX NSCLC): > 100 µM
- TGI (U251 CNS): > 100 µM
- TGI (UACC-62 melanoma): > 100 µM
- TGI (SF-539 CNS): > 100 µM
- TGI (COLO 205 colon): > 100 µM
- TGI (CCRF-CEM leukemia): > 100 µM
- TGI (SN12C renal): > 100 µM
- TGI (A498 renal): > 100 µM
- TGI (A549 NSCLC): > 100 µM
- TGI (RXF-631 renal): > 100 µM
- TGI (LXFL 529 NSCLC): > 100 µM
- TGI (NCI-H23 lung): > 100 µM
- TGI (LOX IMVI melanoma): 40.2 µM
- TGI (XF 498 CNS): > 100 µM
- TGI (SNB-19 CNS): 31.2 µM
- TGI (HT29 colon): > 100 µM
- TGI (NCI-H460 lung): > 100 µM
- TGI (OVCAR-3 ovarian): > 100 µM
- TGI (OVCAR-8 ovarian): > 100 µM
- TGI (DMS 114 small cell lung): 35 µM
- TGI (DMS 273 small cell lung): 45.5 µM
- TGI (SR leukemia): 98 µM

SMILES: Cc1ccc(SSCC(O)C(O)CSSc2ccc(C)cc2)cc1 (stereo not given)
- TGI (HCT-15 colon): 28.2 µM and 27.7 µM
- TGI (M14 melanoma): 18.9 µM and 21.6 µM
- TGI (ACHN renal): 23.6 µM and 29.3 µM
- TGI (NCI-H522 lung): 3.38 µM and 3.68 µM
- TGI (SNB-78 CNS): 52.6 µM
- TGI (DLD-1 colon): 32.1 µM and 30 µM
- TGI (SK-MEL-28 melanoma): 26.8 µM and 28.6 µM
- GI50 (SF-268 CNS): 4.6 µM and 10.4 µM
- TGI (SF-268 CNS): 19.1 µM and 29.2 µM
- TGI (TK-10 renal): 35.2 µM and 27.7 µM
- GI50 (MOLT-4 leukemia): 1.43 µM and 3.12 µM
- TGI (MOLT-4 leukemia): 5.96 µM and 20.9 µM
- GI50 (HL-60(TB) leukemia): 1.01 µM and 4.6 µM
- TGI (HL-60(TB) leukemia): 3.1 µM and 25.6 µM
- TGI (RPMI-8226 leukemia): 12.8 µM and 22 µM
- GI50 (786-0 renal): 5.15 µM and 12.4 µM
- TGI (786-0 renal): 17.5 µM and 24.9 µM
- TGI (HOP-92 NSCLC): 26 µM and 31.4 µM
- TGI (OVCAR-4 ovarian): 26.8 µM and 28.5 µM
- TGI (MALME-3M melanoma): 36 µM and 30.7 µM
- TGI (RXF 393 renal): 16.9 µM and 16.1 µM
- TGI (UO-31 renal): 17.6 µM and 15.3 µM
- GI50 (HOP-62 NSCLC): 12.5 µM and 3.81 µM
- TGI (HOP-62 NSCLC): 26.6 µM and 9.98 µM
- TGI (KM12 colon): 21.2 µM and 23.8 µM
- TGI (NCI-H226 lung): 30.4 µM and 29 µM
- GI50 (SNB-75 CNS): 5.97 µM and 16.2 µM
- TGI (SNB-75 CNS): 22.2 µM and 31.8 µM
- GI50 (CAKI-1 renal): 4.04 µM and 13.2 µM
- TGI (CAKI-1 renal): 15.4 µM and 27 µM
- TGI (HCC-2998 colon): 28.3 µM and 28.9 µM
- GI50 (HOP-18 NSCLC): 13.5 µM and 27.2 µM
- TGI (HOP-18 NSCLC): 31.9 µM and 53.6 µM
- TGI (SW-620 colon): 20.2 µM and 27.2 µM
- TGI (KM20L2 colon): 24.2 µM and 26.6 µM
- TGI (SK-MEL-5 melanoma): 25.6 µM and 19.9 µM
- GI50 (K-562 leukemia): 4.84 µM and 15.3 µM
- TGI (K-562 leukemia): 28.3 µM and 46.8 µM
- GI50 (SK-OV-3 ovarian): 10.8 µM and 22.8 µM
- TGI (SK-OV-3 ovarian): 23.7 µM and 43.6 µM
- TGI (M19-MEL melanoma): 25.5 µM and 36.9 µM
- TGI (SK-MEL-2 melanoma): 20.5 µM
- TGI (OVCAR-5 ovarian): 30.2 µM and 38.4 µM
- TGI (IGROV1 ovarian): 5.87 µM and 6.81 µM
- TGI (UACC-257 melanoma): 30.5 µM and 28.1 µM
- GI50 (SF-295 CNS): 4.31 µM and 12.6 µM
- TGI (SF-295 CNS): 16.4 µM and 26.1 µM
- TGI (EKVX NSCLC): 36 µM and 36.1 µM
- TGI (U251 CNS): 10.9 µM and 12 µM
- GI50 (UACC-62 melanoma): 4.81 µM and 15.8 µM
- TGI (UACC-62 melanoma): 17.2 µM and 31 µM
- TGI (SF-539 CNS): 8.17 µM and 14.3 µM
- GI50 (COLO 205 colon): 1.99 µM and 14.2 µM
- TGI (COLO 205 colon): 3.75 µM and 27.3 µM
- TGI (CCRF-CEM leukemia): 4.08 µM
- GI50 (SN12C renal): 4.74 µM and 10.5 µM
- TGI (SN12C renal): 17.3 µM and 23.2 µM
- TGI (A498 renal): 18 µM
- TGI (A549 NSCLC): 35.9 µM and 26.4 µM
- GI50 (RXF-631 renal): 10.1 µM and 3.4 µM
- TGI (RXF-631 renal): 22.2 µM and 15.7 µM
- TGI (LXFL 529 NSCLC): 19 µM and 22.9 µM
- TGI (NCI-H23 lung): 20.9 µM and 24.1 µM
- TGI (LOX IMVI melanoma): 2.78 µM and 4.21 µM
- TGI (XF 498 CNS): 26.7 µM and 31.4 µM
- TGI (HCT-116 colon): 20.1 µM and 24.5 µM
- TGI (SNB-19 CNS): 31.5 µM and 31.7 µM
- TGI (HT29 colon): 27.8 µM and 49.8 µM
- TGI (NCI-H460 lung): 32.2 µM and 36.3 µM
- GI50 (OVCAR-3 ovarian): 6.31 µM and 13.9 µM
- TGI (OVCAR-3 ovarian): 18.4 µM and 27 µM
- GI50 (OVCAR-8 ovarian): 4.21 µM and 17.4 µM
- TGI (OVCAR-8 ovarian): 14.6 µM and 31.2 µM
- GI50 (DMS 114 small cell lung): 2.07 µM and 7.05 µM
- TGI (DMS 114 small cell lung): 5.14 µM and 20.4 µM
- GI50 (DMS 273 small cell lung): 4.26 µM and 10.5 µM
- TGI (DMS 273 small cell lung): 14.9 µM and 22.5 µM
- TGI (SR leukemia): 15.7 µM and 23.7 µM

From PubChem BioAssay (NCI)
